Experimental findings from ChEMBL document CHEMBL5604061, “ASAP - WNV NS2B-NS3 protease fluorescence dose response” (2024) are described below.

pIC50: −log10 of the molar value. Values joined by “and” are separate entries in the source; they are usually repeats but may differ in a detail not shown here. Identical values can stand only once. Some results are limits rather than exact numbers.

The experiment has as its target T1, NS3 (West Nile virus, UniProt K4FQI5).
T1 sequence (K4FQI5 whole entry): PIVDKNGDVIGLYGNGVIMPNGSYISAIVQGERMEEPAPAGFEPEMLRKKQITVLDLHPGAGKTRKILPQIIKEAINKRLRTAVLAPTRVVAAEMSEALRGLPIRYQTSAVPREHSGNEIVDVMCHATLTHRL
The experiment is described as follows: Functional biochemical assay to identify treatments for viral infectious disease that targets West Nile NS2B-NS3 protease. Utilizing a direct enzyme activity measurement method, reading the fluorescence intensity is used to characterize the relative potency of inhibitors as IC50. The arrangement: species or system NY-99.
What is called IC50 is the concentration that inhibits the measured activity by half. Turning to `O=C(NCC(F)F)[C@H](Nc1ccc2c(c1)CNC2)c1cc(Cl)cc(C2CC2)c1`, the IC50 is 129 nM (2×) and 840 nM.
As a reminder, the pIC50 is −log10 of the IC50, conventionally taken in molar units. The low end stands for a large IC50, the high end for a small IC50. Turning to `O=C(Nc1ccc2c(c1)CNCC2)c1cc(Cl)cc2[nH]ncc12`, the pIC50 was 4.58.
`CC(C)(C)c1cc(Br)cc(C(=O)Nc2ccc3c(c2)CNC3)c1`: the pIC50 is 4.05.
As for `CN1Cc2ccc(NC(=O)c3cc(Cl)cc4[nH]ncc34)cc2C1`, the negative logarithm of the IC50 (pIC50) was under 4.00.
Still for that read-out and setting: as for `O=C(Nc1ccc2c(c1)CNC2)c1cccc(-c2cnco2)c1`, the figure is 4.42; as for `CC(C)NC(=O)[C@H](Nc1ccc2c(c1)CNC2)c1cc(Cl)cc2[nH]ncc12`, 6.41 and 6.53 and 6.47; as for `Cn1cc2cc(Cl)cc(C(=O)Nc3ccc4c(c3)CNC4)c2n1`, under 4.60.
Same read-out and setting: as for `O=C(Nc1ccc2c(c1)CNC2)c1cc(Br)cc2ccccc12`, the figure is 4.24.
Same read-out and setting: then `O=C(Nc1ccc2c(c1)CNC2)c1cc(Cl)cc2c1CCC2`, with 4.64; and `CNC(=O)[C@H](Nc1ccc2c(c1)CNC2)c1cc(Cl)cc(C2CC2)c1`, with 6.35.
The compound `O=C1Cc2c(cccc2C(=O)Nc2ccc3c(c2)CNC3)N1` showed a pIC50 of 5.21. This pIC50 lies 1.14 log units lower than the previous one.
On the same count and under the same terms, then `O=C(Nc1ccc2c(c1)CNC2)c1cc(Br)cc2[nH]c(-c3ccccc3)nc12`, with 4.94; and `N#C[C@H](Nc1ccc2c(c1)CNC2)c1cc(Cl)cc(C2CC2)c1`, with 4.23; and `Clc1cc(CNc2ccc3c(c2)CNC3)c2cn[nH]c2c1`, with 4.34.
Same read-out and setting: as for `CC(C)c1cc(Br)cc(C(=O)Nc2ccc3c(c2)CNC3)c1`, the figure is 4.03; as for `O=C(NC1CCOCC1)[C@H](Nc1ccc2c(c1)CNC2)c1cc(Cl)cc(C2CC2)c1`, 6.73.
`Cn1cc(CNC(=O)[C@H](Nc2ccc3c(c2)CNC3)c2cc(Cl)cc(C3CC3)c2)cn1` gave a pIC50 of 5.97.
`Cn1cc(CCc2nc3c(C(=O)Nc4ccc5c(c4)CNC5)cc(Cl)cc3[nH]2)cn1` gave a pIC50 of 4.35.
Turning to `O=C(Nc1ccc2c(c1)CNC2)c1cc(F)cc2[nH]ncc12`, the pIC50 was 5.85.
For `Cc1c(C(=O)Nc2cc([C@H]3CCOC3)ccn2)cc(C2CC2)n1C`, the pIC50 was 5.57.
Same read-out and setting: as for `O=C(Nc1ccc2c(c1)CNC2)c1cc(Cl)cc2ccncc12`, the figure is 5.01; as for `NCc1cc(/C=C/C(=O)O)cc(NC(=O)c2cc(Cl)cc(NC(=O)OCc3ccccc3)c2)c1`, 4.07; as for `O=C1Cc2c(cc(Br)cc2C(=O)Nc2ccc3c(c2)CNC3)N1`, 5.50.
For `CC(C)NC(=O)[C@H](Nc1ccc2c(c1)CNC2)c1cc(Cl)cc2[nH]c(-c3ccccc3)nc12`, the negative-log IC50 (pIC50) was 6.55 and 6.54 and 6.82 and 6.59.
Same read-out and setting: as for `O=C(Nc1cc2c(cc1Br)CNC2)c1cc(Cl)cc2[nH]ncc12`, the figure is 5.56; as for `NCc1cccc(NC(=O)c2cc(Cl)cc3c2cnn3CC2CC2)c1`, 4.17; as for `NCc1cccc(NC(=O)c2cc(Cl)cc(-n3cccc3)c2)c1`, under 4.00.
The compound `O=C(Nc1ccc2c(c1)CNC2)c1cccc2[nH]c(C(F)(F)F)cc12` had a negative-log IC50 (pIC50) of 5.60.
The same measure, in the same setting: as for `O=C(Nc1ccc2c(c1)CNC2)c1cc(Cl)cc2cn[nH]c12`, the figure is 5.11.
The compound `CNC(=O)[C@H](Nc1cc(Cl)cc2[nH]ncc12)c1ccc2c(c1)CNC2` showed a pIC50 of 4.05.
The same measure, in the same setting: then `N[C@H]1Cc2ccc(NC(=O)c3cc(Cl)cc(NC(=O)OCc4ccccc4)c3)cc2C1`, with 4.45.
The same measure, in the same setting: then `C=CC[C@H]1NCc2cc(NC(=O)c3cccc4c3CC(=O)N4)ccc21`, with 5.10.
As to `O=C(Nc1ccc2c(c1)CNC2)c1cc(Cl)cc2[nH]ncc12`, the pIC50 is 5.51.
Regarding `O=C(Nc1ccc2c(c1)CNC2)c1cc(Br)cc2[nH]c(=O)[nH]c12`, the pIC50 is 5.33.
`O=C(Nc1ccc2c(c1)CN[C@H]2C[C@H](O)CO)c1cc(F)cc2[nH]ncc12` gave a pIC50 of 5.62.
`N#C[C@H](Nc1ccc2c(c1)CNC2)c1cc(Cl)cc2[nH]ncc12` had a pIC50 of 4.70.
Still for that read-out and setting: then `O=C(Nc1ccc2c(c1)CNC2)c1cc(Cl)cc2[nH]c(-c3ccc(F)cc3O)nc12`, with under 4.00; and `Clc1cc([C@@H]2C[C@H]2c2cccc(C3CCNCC3)c2)c2cn[nH]c2c1`, with 4.96.
On the same count and under the same terms, as for `Cc1c(C(=O)Nc2cc(-c3cccnc3)ccn2)cc(C2CC2)n1C`, the figure is 4.89; as for `O=C(NCC(F)F)[C@H](Nc1ccc2c(c1)CNC2)c1cc(F)cc2[nH]ccc12`, 6.11.
The same measure, in the same setting: as for `NCCc1ccc([C@H]2C[C@@H]2c2cc(Cl)cc(NC(=O)OCc3ccccc3)c2)cc1`, the figure is 5.15; as for `Cn1cc2c(C(=O)Nc3ccc4c(c3)CNC4)cc(F)cc2n1`, 5.13.
The compound `O=C(Nc1ccc2c(c1)CNC2)c1cc(Cl)cc2[nH]c(COc3ccccn3)nc12` gave a negative logarithm of the IC50 (pIC50) of under 4.00.
`C=CC[C@H]1NCc2cc(NC(=O)c3cc(Cl)cc4[nH]ncc34)ccc21` had a pIC50 of 4.85.
Still for that read-out and setting: as for `Cc1nc2c(C(=O)Nc3ccc4c(c3)CNC4)cc(Cl)cc2[nH]1`, the figure is under 4.91; as for `O=C(NCCC1CC1)[C@H](Nc1ccc2c(c1)CNC2)c1cc(Cl)cc(C2CC2)c1`, 6.16.
In turn, `O=C(Nc1ccc2c(c1)CNC2)c1cc(Cl)cc2cc[nH]c12` gave a pIC50 of 4.79.
On the same count and under the same terms, as for `C=CC[C@H]1NCc2cc(NC(=O)c3cc(F)cc4[nH]ncc34)ccc21`, the figure is 5.38; as for `O=C(Nc1ccc2c(c1)CNC2)c1cc(Cl)cc2[nH]c(-c3cnccc3O)nc12`, under 4.00; as for `O=C(Nc1cc(Br)c2c(c1)CNC2)c1cc(F)cc2[nH]ncc12`, 6.04 and 6.02.
As for `CNC(=O)[C@H](Nc1cc(CN)cc(C(=O)O)c1)c1cc(Cl)cc(C2CC2)c1`, the pIC50 was 5.83.
For the compound `O=C(NCC(F)F)[C@H](Nc1ccc2c(c1)CNC2)c1cc(F)cc2[nH]ncc12`, the pIC50 was 6.61.
In the case of `O=C1Cc2c(cc(F)cc2C(=O)Nc2ccc3c(c2)CNC3)N1`, the pIC50 is 6.27 and 6.24.
Still for that read-out and setting: then `CCNC(=O)Nc1cc(Cl)cc(C(=O)Nc2ccc3c(c2)CNCCO3)c1`, with 4.81.
Consider `C=CC[C@H]1NCc2cc(N[C@H](C(=O)NC(C)C)c3cc(Cl)cc4[nH]ncc34)ccc21`, for which the pIC50 is 6.05.
Regarding `CC(C)NC(=O)[C@H](Nc1ccc2c(c1)CNC2)c1cccc2cn[nH]c12`, the pIC50 is 4.85.
On the same count and under the same terms, as for `O=C(NC1CCOCC1)[C@H](Nc1ccc2c(c1)CNC2)c1cc(Cl)cc2[nH]ncc12`, the figure is 6.94; as for `NCc1cccc(NC(=O)c2cc(Br)cc3[nH]ccc23)c1`, under 4.00; as for `CC1=C(c2cc(NC(=O)c3cc(Cl)cc4[nH]ncc34)cc3c2CNC3)CCC1=O`, 4.89.
The same measure, in the same setting: as for `O=C(Nc1ccc2c(c1)CNC2)c1cc(F)c2[nH]ccc2c1`, the figure is 4.70; as for `Cn1c(=O)[nH]c2c(C(=O)Nc3ccc4c(c3)CNC4)cc(Br)cc21`, 4.84.
On the same count and under the same terms, then `O=C(NCC(F)F)[C@H](Nc1ccc2c(c1)CNC2)c1cc(Cl)cc2[nH]ncc12`, with 5.58.
`O=C(Nc1cc2c(c(C3=CC[C@H](O)CC3)c1)CNC2)c1cc(Cl)cc2[nH]ncc12` gave a pIC50 of 5.42.
Turning to `O=C(Nc1ccc2c(c1)CNC2)c1cc(Cl)cc2[nH]c(-c3cc(C4CC4)[nH]n3)nc12`, the pIC50 was 4.99.
For the compound `OCC#C[C@H](Nc1ccc2c(c1)CNC2)c1cc(Cl)cc2[nH]ncc12`, the pIC50 was 4.65.
Consider `O=C(Nc1ccc2c(c1)CNC2)c1cc(F)cc2c1CCC2`, for which the negative-log IC50 (pIC50) is 5.36. This pIC50 lies 0.71 log units higher than the previous one.
`Cc1cccc(-c2nc3c(C(=O)Nc4ccc5c(c4)CNC5)cc(Cl)cc3[nH]2)c1O` gave a pIC50 of 4.76.
The compound `O=C(Nc1ccc2c(c1)CNC2)c1cccc2[nH]c(=O)[nH]c12` had a pIC50 of 5.83.
`CNC(=O)[C@H](Nc1ccc2c(c1)CNC2)c1cc(Cl)cc2c1OCC2`: the negative logarithm of the IC50 (pIC50) was 5.42.
On the same count and under the same terms, as for `O=C(Nc1ccc2c(c1)CNC2)c1cc(Cl)cc(C(F)(F)F)n1`, the figure is 4.40; as for `C=CC[C@H]1NCc2cc(NC(=O)c3cc(F)cc4c3CC(=O)N4)ccc21`, 5.72.
On the same count and under the same terms, as for `Cc1c(C(=O)Nc2cc(CCCN)ccn2)cc(C2CC2)n1C`, the figure is 4.23; as for `O=C(Nc1ccc2c(c1)CNC2)c1cccc2nc(O)ccc12`, 5.17; as for `O=C(Nc1ccc2c(c1)CNC2)c1cc(F)cc2c1CCNC2`, 5.87.
Still for that read-out and setting: as for `O=C(Nc1ccc2c(c1)CNC2)c1cc(Br)cc2c1nc1n2CCCC1`, the figure is 4.50.
Compound `CSCCNC(=O)[C@H](Nc1ccc2c(c1)CNC2)c1cc(Cl)cc(C2CC2)c1` gave a pIC50 of 6.29.
Consider `CCOCCNC(=O)[C@H](Nc1ccc2c(c1)CNC2)c1cc(Cl)cc2[nH]ncc12`, for which the pIC50 is 6.33.
Take `O=C(Nc1cc(Cl)cc(C(=O)Nc2ccc3c(c2)CCNC3)c1)OCc1ccccc1`: the pIC50 was 4.31.
The compound `O=C(Nc1ccc2c(c1)CNC2)c1cc(F)cc2nn(-c3ccccn3)nc12` gave a pIC50 of 5.15.
The same measure, in the same setting: then `O=C1Cc2cc(C(=O)Nc3ccc4c(c3)CNC4)ccc2N1`, with 4.78; and `O=C(Nc1ccc2c(c1)CNC2)c1cc(F)cc2[nH]c(-c3ccccc3)nc12`, with 4.80; and `NCc1cc(Cl)cc(C(=O)Nc2ccc3c(c2)CNC3)c1`, with 5.00.
With `O=C(Nc1ccc2c(c1)CNC2)c1cc(Cl)cc2nn(-c3ccccc3)nc12`, the pIC50 was 4.67.
As for `N[C@H]1CCc2cc(NC(=O)c3cc(Cl)cc(NC(=O)OCc4ccccc4)c3)ccc21`, the pIC50 was 4.35.
In turn, `N#Cc1cccc(-c2nc3c(C(=O)Nc4ccc5c(c4)CNC5)cc(Cl)cc3[nH]2)c1` had a negative-log IC50 (pIC50) of 5.12.
As to `O=C(Nc1cc2c(cc1Br)CNC2)c1cc(F)cc2[nH]ncc12`, the pIC50 was 5.90.
`O=C(Nc1ccc2c(c1)CNC2)c1cc(F)cc(-c2cnc(C3CC3)s2)c1` showed a pIC50 of 5.70. This pIC50 lies 0.20 log units lower than the previous one.
Still for that read-out and setting: then `CNC(=O)[C@H](Nc1cc(CN)cc(-c2nn[nH]n2)c1)c1cc(Cl)cc(C2CC2)c1`, with 6.00; and `Nc1nc2c(Br)cc(C(=O)Nc3ccc4c(c3)CNC4)cc2s1`, with under 4.00; and `O=C(Nc1ccc2c(c1)CNC2)c1cc(Cl)cc2[nH]c(-c3cnc(C4CC4)o3)nc12`, with 4.64.
Take `O=C(Nc1cc(Cl)cc(C(=O)Nc2cccc(-n3nn[nH]c3=O)c2)c1)OCc1ccccc1`: the pIC50 was 4.48. The pIC50 values of the last two compounds are within 0.2 log units of each other.
